In ChEMBL document CHEMBL1926585, “Triterpenoids with rare carbon skeletons from Salvia hydrangea: antiprotozoal activity and absolute configurations” (J Nat Prod, 2011):

Experiments:
Plasmodium falciparum = assay: Antiplasmodial activity against Plasmodium falciparum K1; type: functional, organism-based
[1] = Selectivity index, ratio of IC50 for rat L6 cells to IC50 for Plasmodium falciparum K1; type: toxicity, cell-based; details: L6 cells versus Plasmodium falciparum K1, read-out: Ratio IC50
[2] = test system: Trypanosoma brucei rhodesiense; assay: Antitrypanosomal activity against Trypanosoma brucei rhodesiense STIB900; type: functional, organism-based
[3] = Selectivity index, ratio of IC50 for rat L6 cells to IC50 for Trypanosoma brucei rhodesiense STIB900; type: toxicity, cell-based; details: L6 cells versus Trypanosoma brucei rhodesiense STIB900, read-out: Ratio IC50
L6 = assay: Cytotoxicity against rat L6 cells; type: cell-based

| IC50 (Plasmodium falciparum) | IC50 [2] | Structure (SMILES) | selectivity ratio [1] | selectivity ratio [3] | IC50 (L6) |
| --- | --- | --- | --- | --- | --- |
| 0.18 µM | 15.9 µM | CC1=CC(=O)[C@@]23CC[C@@H]4C(C)(C)CCC[C@@]45C[C@]24[C@@H]1C[C@H]1C(C)(C)OC(=C(C(C)C)C3=O)[C@]14O5 [PEROVSKONE B] | 69.6 | 0.78 | 5.77 µM |
| 1.43 µM | 4.33 µM | C=CC1=C[C@@H]2[C@@H]3[C@]4(C(C)C)C(=O)[C@]5(CC[C@H]6C(C)(C)CCC[C@]67C[C@]25[C@@](OC[C@@]3(C)O)(O7)C4=O)C1 [SALVADIONE C] | 86.6 | 43.2 | > 90 µM |
